# Assay results as given in patent US20110212100A1, “METHODS FOR MODULATING DEVELOPMENT AND EXPANSION OF IL-17 EXPRESSING CELLS” (priority 2007, published 2011).
# Values joined by “and” are separate entries in the source; they are usually repeats but may differ in a detail not shown here. Equal values may be shown once. Read-outs that look alike come from different tables or passages of the source.
# How the values were obtained:
# fibrosis = details: Pines et al.; cited from earlier work
# [1] = test system: human memory T cells (CD4+ CD45RO+); assay: IL-17 and IFNγ expression by human memory T cells co-cultured with monocytes; assay type: cell-based; details: 100 nM HF, 6 days
# Protocol: FIG. 10F is an illustration depicting purified primary human memory T cells (CD4^+ CD45RO^+) activated by anti-CD3/anti-CD28 coated beads in co-culture with CD14^+ monocytes and treated with DMSO, 100 nM HF or 100 nM MAZ1310. T cells were expanded for 6 days and intracellular cytokine expression was determined following restimuation with PMA plus ionomycin in the presence of brefeldin A.
# Human T cell isolation and activation: Resting CD4^+ T cells were isolated from PBMC of healthy human donors using Dynal CD4 Positive Isolation Kit (Invitrogen, Carlsbad, Calif.) as previously described (M. Sundrud et al., Blood 106, 3440, 2005). CD4^+ cells were further purified to obtain memory T cells by staining with PE-conjugated anti-human CD45RO-PE antibodies (BD Biosciences), and sorting on a FACSAria cytometer (BD Biosciences). Following purification, cells were greater than 99% CD4^+ CD45RO^+. […] T cells were expanded in the presence HF or MAZ1310 as indicated for 6 days and intracellular cytokine expression was determined by intracellular staining.
# Detection of cytokine production: Cytokines secreted into media supernatant were measured using the mouse Th1/Th2 cytometric bead array (CBA, BD Pharmingen) in accordance with manufacturers instructions. […]
# [2] = test system: Xenopus feeding stage tadpoles; assay: Toxicity in Xenopus feeding stage tadpoles; assay type: in vivo; details: 400 nM HF, 7 days
# Protocol: At concentrations over 80 nM, HF has a variety of non-specific effects on both T-cells and fibroblasts. […] At the recommended tolerated dose for chronic treatment (0.5 mg/day), plasma levels of HF were ˜0.5 ng/ml (1 nM). (de.Jonge et al., Eur J Cancer, vol. 42(12):1768-74 (2006)).
# [3] = cited from earlier work
# [4] = test system: TGFβ-induced Smad phosphorylation; assay: TGFβ signaling in T and B cells (Smad phosphorylation, lymphocyte responses to TGFβ); assay type: cell-based, mouse; details: HF 2.5-40 nM or 10 nM; SB-431542 10 μM
# Protocol: T cells were then activated in the presence or absence of 3 ng/ml. TGFβ. Whole cell extracts were prepared after 1 hour of stimulation and western blot analyses were performed using the indicated antibodies.
# (§1) Western blotting: Whole cell lysates were generated from T cells activated for the indicated times. For STAT3 and Smad2/3 western blots cells were harvested, washed in PBS and lysed in 50 mM Tris, pH 7.4, 0.1% SDS, 1% Triton-X100, 140 mM NaCl, 1 mM EDTA, 1 mM EGTA supplemented with protease inhibitors tablets (Roche-Germany), 1 mM NaF and 1 mM Na3VO4. For eIF2α and ATF4 western blots, cells were harvested as above and lysed in 50 mM Tris, pH 7.4, 2% SDS, 20% glycerol and 2 mM EDTA supplemented with protease and phosphatase inhibitors as above. All lysates were cleared via centrifugation and 15-30 μg of protein was resolved by SDS-PAGE. Protein was transferred to nitrocellulose membranes, blocked and blotted using specific antibodies. Antibodies used for western blot analysis were anti-phospho-Smad2, anti-STAT3 (pY705), anti-STAT3, anti-eIF2α^pS51, anti-eIF2α, anti-GCN2^pT898, anti-GCN2 (all from cell signaling technology, Danvers, Mass.). Anti-ATF4/CREB2 and anti-β-actin were purchased from Santa Cruz biotechnology (Santa Cruz, Calif.). […]
# SV-MES mesangial cells = assay: Stress response in fibroblasts (eIF2α western blot); assay type: cell-based; details: 20 nM HF, 2 hours
# Protocol: SV-MES mesangial cells were stimulated for 2 hours with DMSO, 20 nM MAZ1310 or 20 nM HF. Whole cell lysates were analyzed for expression of phosphorylated or total eIF2α or GCN2 by western blotting.
# as §1
smiles,measurement,setting,value
"O=C(CC1NCCCC1O)Cn1cnc2cc(Br)c(Cl)cc2c1=O (racemic) [HF, 7-bromo-6-chloro-3-[3-(3-hydroxy-2-piperidinyl)-2-oxopropyl]-4(3H)-quinazolinone]",concentration range for inhibition of fibrosis in vitro,fibrosis,1 to 200 nM
same,"IFNγ expression by human T cells, in words",[1],essentially unaffected
same,"percentage of human T cells expressing IL-17 and amount of IL-17 produced, in words",[1],greatly reduced
same,"toxic effects in tadpoles, in words",[2],does not have detectable toxic effects
same,peak plasma concentration,[3]; oral 3.5 mg/day,3 ng/ml and ~8 nM
same,dose at which dose limiting toxicity occurred,[3]; oral (de Jonge et al.),3.5 mg/day
same,"dose limiting toxicity, in words",[3]; oral,nausea and vomiting
same,recommended tolerated dose for chronic treatment,[3]; oral,0.5 mg/day
same,"dose limiting toxicity, in words","[3]; oral, listed as halofuginone",nausea
same,"effect on TGFβ-induced Smad phosphorylation and other lymphocyte responses to TGFβ, in words",[4],inhibited neither TGFβ-induced Smad phosphorylation
same,"eIF2α phosphorylation in SV-MES mesangial cells, in words",SV-MES mesangial cells,increased eIF2α phosphorylation
